From PubChem BioAssay AID179 (DTP/NCI, 2004) come the findings set out here.

Activity calls are given as the source filed them.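 The calls were made as follows: active = compounds giving half or more protection of infected cells from virus-caused growth loss, again on retest; inactive = the rest.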

The assay relates to CEM cells HIV-1 protection, formazan growth assay. As to the kind of experiment: NCI AIDS Antiviral Assay. Conditions: for IC50: measured here: growth of uninfected CEM cells. Put shortly:
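Five concentrations of each compound were applied to infected and uninfected human CEM cells. Protection from HIV-1 was judged from growth measured with a soluble formazan assay.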

The term EC50 denotes the concentration needed to bring the measured effect to its halfway point. A word on the IC50: it is the concentration at which inhibition is half-maximal. High values mean a need for much substance, low ones inhibition by little substance.

In the case of `O=c1ccc(=O)n(-c2ccccc2)[nH]1`, the EC50 is more than 955 µM and the IC50 was more than 955 µM.

With `COc1cc2c(cc1OC)C(C(CO)CO)N(CC(O)CCl)CC2` (configuration not stated), the EC50 was more than 692 µM and the IC50 was more than 692 µM.

On to `C=C1CC(COc2ccc3c(C)c(Cl)c(=O)oc3c2)(c2ccccc2)OC1=O` (configuration not stated), for which the EC50 was more than 200 µM and the IC50 came to 0.363 µM.

Consider `O=C1OC(c2ccccc2)=N/C1=C\c1cc(Cl)ccc1Cl`, for which the EC50 is more than 6.31 µM and the IC50 is more than 6.31 µM.

Turning to `CC(=O)O[C@H]1CC[C@@]2(C)C(=CC[C@H]3C4=CC=C(C(C)=O)[C@@]4(C)CCC32)C1` (some centres not stated), the result was inactive.

As for `CCCCN1C(=N)C2(C#N)C(CCC)C(CC)C1C2(C#N)C#N` (configuration not stated), the EC50 was more than 200 µM and the IC50 was determined as 158 µM.

As to `CCOC(=O)C1=CCC2c3[nH]c4ccccc4c3CCN2C1=O` (configuration not stated), the EC50 was more than 16.2 µM and the IC50 was 9.12 µM.

Consider `C(/C=C\c1ccccc1)=Nc1ccccc1`, for which the EC50 is more than 34.7 µM and the IC50 is more than 34.7 µM.

With `COC(=O)c1c(C)cc2c(c1O)C1(O)C(=O)c3cc4c(c(O)c3C(=O)C1(OC)C(O)C2)C(=O)C=C(NC1OC(C)C(OC)C(O)C1OC)C4=O` (configuration not stated), the result was inactive.

Take `OC12c3ccccc3C1CCCCCCCCCC21OCCCO1` (configuration not stated): the EC50 was more than 200 µM and the IC50 is more than 200 µM.

As to `COc1c(Cl)cc(C(=CCC[C@H]2CC[C@@]3(C)C(CC[C@@H]4C3CC[C@]3(C)C(C(C)CCCC(C)C)CCC43)C2)c2cc(Cl)c(OC)c(C(=O)O)c2)cc1C(=O)O` (some centres not stated), the EC50 was 12 µM and the IC50 came out at 302 µM.

On to `CC(C)N1CC2CN(Cc3ccccc3)CC(C1)C2=O`, for which the EC50 is more than 479 µM and the IC50 is more than 479 µM.

For the compound `COc1cc(/C=C(\C#N)c2ccc(Cl)cc2)ccc1OCc1ccccc1`, the EC50 was more than 200 µM and the IC50 is more than 200 µM.

For the compound `Cc1cc2c(cc1C)C(=O)/C(=C/c1ccccc1C(=O)O)C2`, the EC50 was more than 145 µM and the half-maximal inhibitory concentration (IC50) is 45.7 µM.

In the case of `O=C1CCCC/C1=C(\Br)I`, the result was inactive.

In the case of `CNC(=O)C(C)NC(=O)C(Cc1ccccc1)NC(=O)c1ccccc1` (configuration not stated), the EC50 was more than 200 µM and the IC50 is more than 200 µM.

`Cc1cc(S(=O)(=O)Nc2nnc3cc(C(F)(F)F)cc(C)n23)c(S)cc1Cl`: the EC50 was 50.1 µM and the IC50 stood at 132 µM.

For the compound `O=C(/C=C\c1cccc2ccccc12)c1ccc(F)cc1`, the EC50 is more than 7.24 µM and the IC50 was more than 7.24 µM.

Consider `O=C1OC(=O)C2C1CC1C(=O)OC(=O)C12` (configuration not stated), for which the EC50 is more than 1200 µM and the IC50 is more than 1200 µM.

In the case of `CC12CC(=O)NN=C1c1ccccc1C2` (configuration not stated), the result was inactive.

As for `CCOc1cc2c(cc1O)CC[C@@H]1[C@@H]2CC[C@]2(C)C(N)CC[C@@H]12` (some centres not stated), the EC50 is more than 200 µM and the IC50 amounted to 1.2 µM.

In the case of `O=[N+]([O-])c1ccc(OC2CC3C4C=CC3C2C4)c([N+](=O)[O-])c1` (configuration not stated), the EC50 was more than 200 µM and the IC50 is more than 200 µM.

With `COC1/C=C/OC2(C)Oc3c(C)c(O)c4c(O)c(cc(OCC(=O)N(C)C5CCCC5)c4c3C2=O)NC(=O)/C(C)=C/C=C/C(C)C(O)C(C)C(O)C(C)C(OC(C)=O)C1C` (configuration not stated), the EC50 is more than 200 µM and the IC50 stood at 28.8 µM.

Take `COc1cc(NS(C)(=O)=O)ccc1NCc1c2ccccc2nc2ccccc12`: the outcome was inactive.

As for `Cn1c(=O)c2c(nc(N/N=c3\scc(-c4ccc(Cl)cc4)n3Cc3ccccc3)n2C)n(C)c1=O`, the EC50 was more than 200 µM and the IC50 came to 10.7 µM.

As for `NC(=S)N/N=C1\C(=O)N(c2cccc([N+](=O)[O-])c2)C(=O)C1C(=O)Nc1cccc([N+](=O)[O-])c1` (configuration not stated), the outcome was inactive.

Turning to `Cc1c2ccccc2nc(CSC#N)[n+]1[O-]`, the EC50 is more than 200 µM and the IC50 was found to be 36.3 µM.

`C=CCCCCCCCCC(=O)NC(C)COC` (configuration not stated): the EC50 was more than 200 µM and the IC50 was found to be 107 µM.

With `CCCCCCc1cc2cc(-c3csc(CC#N)n3)c(=O)oc2cc1O`, the EC50 was more than 200 µM and the IC50 is more than 200 µM.
